The results in this text go back to ChEMBL document CHEMBL4265870, “Synthesis and biological evaluation of a new series of benzimidazole derivatives as antimicrobial, antiquorum-sensing and antitumor agents” (Eur J Med Chem, 2017).

One series deals with Escherichia coli. The experiment in a line: Antimicrobial activity against Escherichia coli by two fold serial dilution method. Format: functional.
Series [1] concerns Mus musculus. Briefly: Toxicity in mouse EAC cells implanted Swiss mouse assessed as WBC count at 0.5 mg/mouse dosed for 9 days starting 1 day after tumor cell implantation (reference value: 23.96 10^3/mm3)). Format: organism-based. Particulars: in vivo.
For the next series, the system named is HepG2. Briefly: Cytotoxicity in human HepG2 cells assessed as reduction in cell viability by MTT assay. Format: functional, cell-based.
For the next series, the system named is Bacillus cereus. Briefly: Antimicrobial activity against Bacillus cereus by two fold serial dilution method. Format: functional.
The test system of series [2] is Ehrlich. Briefly: Antitumor activity against mouse EAC cells implanted in Swiss mouse assessed as mouse survival time at 0.5 mg/mouse dosed for 9 days starting 1 day after tumor cell implantation (reference value: 14.5 days). The format is functional.
Another series has as its system MCF7. The experiment in a line: Cytotoxicity in human MCF7 cells assessed as reduction in cell viability by MTT assay. The format is functional, cell-based.
In series [3] the test system is Mus musculus. Briefly: Toxicity in mouse EAC cells implanted Swiss mouse assessed as hemoglobin level at 0.5 mg/mouse dosed for 9 days starting 1 day after tumor cell implantation (reference value: 8.15 g/dl). Format: organism-based. The following applies: in vivo.
In series [4] the test system is Ehrlich. The experiment in a line: Antitumor activity against mouse EAC cells implanted in Swiss mouse assessed as viable cell count per 100 ul at 0.5 mg/mouse dosed for 9 days starting 1 day after tumor cell implantation (reference value: 83.2 x 10^6/100 ul). Format: functional.
Series [5] concerns Ehrlich. The experiment in a line: Antitumor activity against mouse EAC cells implanted in Swiss mouse assessed as tumor volume at 0.5 mg/mouse dosed for 9 days starting 1 day after tumor cell implantation (reference value: 9.85 ml). Format: functional.
The test system of the next series is Calf thymus DNA. The experiment in a line: Binding affinity to calf thymus DNA by TLC plate based assay. The format is nucleic-acid assay. Particulars: Bos taurus.
For series [6], the system named is Ehrlich. Briefly: Antitumor activity against mouse EAC cells implanted in Swiss mouse assessed as increase in life span at 0.5 mg/mouse dosed for 9 days starting 1 day after tumor cell implantation relative to untreated control. The format is functional.
The test system of another series is Aspergillus fumigatus. Briefly: Antimicrobial activity against Aspergillus fumigatus 293 by two fold serial dilution method. Format: functional. Particulars: Af293.
In a further series the test system is Staphylococcus aureus. Briefly: Antimicrobial activity against Staphylococcus aureus by two fold serial dilution method. The format is functional.
For series [7], the system named is Mus musculus. The experiment in a line: Toxicity in mouse EAC cells implanted Swiss mouse assessed as RBC count at 0.5 mg/mouse dosed for 9 days starting 1 day after tumor cell implantation (reference value: 3.69 10^6/mm3)). The format is organism-based. The following applies: in vivo.
Series [8] deals with Chromobacterium violaceum. Briefly: Antiquorum-sensing activity against Chromobacterium violaceum ATCC 12472 assessed as reduction in violacein production at 5000 ug/ml a=. Format: functional.
A further series has as its system WI-38. The experiment in a line: Cytotoxicity in human WI38 cells assessed as reduction in cell viability by MTT assay. The format is cell-based.
A further series deals with HCT-116. The experiment in a line: Cytotoxicity in human HCT116 cells assessed as reduction in cell viability by MTT assay. Format: functional, cell-based.

SMILES strings stand for the structures. ≈ marks a conversion by molar mass, not a printed value. Calls of active or inactive are those of the source. The calls are words filed in the database; no cut-off is given here. Where only a bound is given, the exact number is not on record here.

Consider `O=[N+]([O-])c1ccc2[nH]c(CN3CCN(c4ccc(F)cc4)CC3)nc2c1`, for which the minimum inhibitory concentration (MIC) in the series with Escherichia coli amounted to 2500 µg/mL (≈ 7.03 mM); against Bacillus cereus, 2500 µg/mL (≈ 7.03 mM); in the series on Aspergillus fumigatus, 2500 µg/mL (≈ 7.03 mM); in the series with Staphylococcus aureus, 1250 µg/mL (≈ 3.52 mM). Besides, the Activity in the series on Mus musculus [1] stood at 7.34 ×10³ /mm3; in the series with Mus musculus [3], 13.15 g/dL; in the series on Ehrlich [4], 23.54 ×10⁶ No_unit; in the series on Ehrlich [5] it was 2.32 mL; in the series with Mus musculus [7] it was 5.36 ×10⁶ /mm3. The IC50 with HepG2 was determined as 22 µM; with MCF7, 15 µM; in the series on WI-38, 298 µM; in the series on HCT-116 it was 14 µM. The MST in the series on Ehrlich [2] is 44.5 days. In addition, the result with Calf thymus DNA was Active. Further, the ILS with Ehrlich [6] amounted to 206.98%. In addition, in series [8], the “diameter of the inhibition zone (DIZ)” value is under 2 mm.
Turning to `CCOC(=O)c1c(NCc2nc3ccccc3[nH]2)sc2c1CCCCC2`, the MIC in the series with Escherichia coli, with Bacillus cereus, against Aspergillus fumigatus and with Staphylococcus aureus was over 2500 µg/mL in each case. Besides, the Activity in the series on Mus musculus [1] amounted to 9.11 ×10³ /mm3; with Mus musculus [3], 12.13 g/dL; with Ehrlich [4], 29.65 ×10⁶ No_unit; in the series with Ehrlich [5], 3.23 mL; with Mus musculus [7], 4.89 ×10⁶ /mm3. Also, the half-maximal inhibitory concentration (IC50) in the series on HepG2 was found to be 43 µM; in the series with MCF7, 40 µM; in the series on WI-38, 58 µM; in the series with HCT-116, 31 µM. Further, the MST in the series on Ehrlich [2] turned out to be 39 days. Moreover, the result in the series with Calf thymus DNA was inactive. For the same molecule, the increase in lifespan (ILS) in the series on Ehrlich [6] was determined as 168.9%. Further, in series [8], the “diameter of the inhibition zone (DIZ)” value stood at 3 mm.
As to `O=C1c2ccccc2C(=O)N1NCc1nc2ccccc2[nH]1`, the MIC in the series with Escherichia coli was over 2500 µg/mL; in the series with Bacillus cereus it was over 2500 µg/mL; in the series on Aspergillus fumigatus, 1250 µg/mL (≈ 4.28 mM); in the series on Staphylococcus aureus, over 2500 µg/mL. In addition, the Activity is 7.11 ×10³ /mm3 with Mus musculus [1]; 13.21 g/dL with Mus musculus [3]; 21.95 ×10⁶ No_unit in the series on Ehrlich [4]; 2.15 mL with Ehrlich [5]; 5.52 ×10⁶ /mm3 in the series on Mus musculus [7]. For the same molecule, the IC50 with HepG2 turned out to be 32 µM; with MCF7 it was 37 µM; in the series on WI-38, 322 µM; in the series with HCT-116 it was 31 µM. Also, the MST with Ehrlich [2] was 46.7 days. Further, the result with Calf thymus DNA was Active. Also, the ILS in the series with Ehrlich [6] is given as 222.07%. Also, the “diameter of the inhibition zone (DIZ)” value in series [8] is 4 mm.
